US7291641B2, “Derivatives of heterocycles with 5 members, their preparation and their use as medicaments” (Societe de Conseils de Recherches et d'Applications …, priority 1999, dated 2007)

Row | Structure (SMILES) | melting point
1 | O=C(NCCc1nc(-c2ccc(-c3ccccc3)cc2)c[nH]1)OCC1CCCCC1 [Example 280, cyclohexylmethyl 2-(4-[1,1′-biphenyl]-4-yl-1H-imidazol-2-yl)ethylcarbamate] | 132 to 134 °C
2 | CCCCOC(=O)NCCc1nc(-c2ccc(-c3ccc(Br)cc3)cc2)c[nH]1 [Example 281, 4-bromo-4′-(2-{2-[(butoxycarbonyl)amino]ethyl}-1H-imidazol-4-yl)-1,1′-biphenyl] | 166 °C
3 | O=C(NCCc1nc(-c2ccc(-c3ccccc3)cc2)c[nH]1)OCC1CCC1 [Example 285, cyclobutylmethyl 2-(4-[1,1′-biphenyl]-4-yl-1H-imidazol-2-yl)ethylcarbamate] | 144 to 145 °C
4 | COCCOC(=O)NCCc1nc(-c2ccc(-c3ccccc3)cc2)c[nH]1 [Example 288, 4-[2-(2-{[(2-methoxyethoxy)carbonyl]amino}ethyl)-1H-imidazol-4-yl]-1,1′-biphenyl] | 123.3 °C
5 | CCCCOC(=O)NCCc1nc(-c2ccc(C(C)(C)C)cc2)c[nH]1 [Example 294, butyl 2-[4-(4-tert-butylphenyl)-1H-imidazol-2-yl]ethylcarbamate] | 106 to 108 °C
6 | CCCCOC(=O)NCCc1nc(-c2ccc(Br)cc2)c[nH]1 [Example 299, butyl 2-[4-(4-bromophenyl)-1H-imidazol-2-yl]ethylcarbamate] | 99 to 100 °C
7 | CCCCOC(=O)NCCc1nc(-c2ccc(C(F)(F)F)cc2)c[nH]1 [Example 300, butyl 2-{4-[4-(trifluoromethyl)phenyl]-1H-imidazol-2-yl}ethylcarbamate] | 104 to 105 °C
8 | O=C(NCCc1nc(-c2ccc(-c3ccc(Br)cc3)cc2)c[nH]1)OCC1CCCCC1 [Example 303, cyclohexylmethyl 2-[4-(4′-bromo-1.1′-biphenyl-4-yl)-1H-imidazol-2-yl]ethylcarbamate] | 130 to 132 °C
9 | CCCCOC(=O)NCCc1nc(-c2ccc(N3CCCC3)cc2)c[nH]1 [Example 313, butyl 2-[4-(4-pyrrolidin-1-ylphenyl)-1H-imidazol-2-yl]ethylcarbamate] | 125 °C
10 | CCCCOC(=O)NCCc1nc(-c2cc(C(C)(C)C)c(O)c(C(C)(C)C)c2)c[nH]1 [Example 330, butyl 2-[4-(3,5-ditert-butyl-4-hydroxyphenyl)-1H-imidazol-2-yl]ethylcarbamate] | 180.9 °C
11 | CC(C)COC(=O)NCCc1nc(-c2ccc(-c3ccc(Br)cc3)cc2)c[nH]1 [Example 338, isobutyl 2-[4-(4′-bromo-1,1′-biphenyl-4-yl)-1H-imidazol-2-yl]ethylcarbamate] | 158.7 °C
12 | CC(C)COC(=O)NCCc1nc(-c2ccc(C(C)(C)C)cc2)c[nH]1 [Example 339, isobutyl 2-[4-(4-tert-butylphenyl)-1H-imidazol-2-yl]ethylcarbamate] | 110.6 °C
13 | CC(C)(C)c1ccc(-c2c[nH]c(CCNC(=O)OCC3CCC3)n2)cc1 [Example 340, cyclobutylmethyl 2-[4-(4-tert-butylphenyl)-1H-imidazol-2-yl]ethylcarbamate] | 103 °C
14 | O=C(NCCc1nc(-c2ccc(-c3ccc(Br)cc3)cc2)c[nH]1)OCCCC(F)(F)F [Example 344, 4,4,4-trifluorobutyl 2-[4-(4′-bromo-1,1′-biphenyl-4-yl)-1H-imidazol-2-yl]ethylcarbamate] | 176.5 °C
15 | O=C(NCCc1nc(-c2ccc(-c3ccccc3)cc2)c[nH]1)OCCCC(F)(F)F [Example 345, 4,4,4-trifluorobutyl 2-[4-(1,1′-biphenyl-4-yl)-1H-imidazol-2-yl]ethylcarbamate] | 157.3 °C

More lines, now with the values ahead:

Row | melting point | Structure (SMILES)
16 | 224 to 226 °C | CC(C)[C@@H](NC1CCCCC1)c1nc(-c2ccc(F)cc2)c[nH]1 [Example 276, N-{(1R)-1-[4-(4-fluorophenyl)-1H-imidazol-2-yl]-2-methylpropyl}-cyclohexanamine]
17 | 260 to 262 °C | Fc1ccc(-c2c[nH]c([C@@H](NC3CCCCC3)C3CCCCC3)n2)cc1 [Example 283, N-{(S)-cyclohexyl[4-(4-fluorophenyl)-1H-imidazol-2-yl]methyl}-cyclohexanamine]
18 | 180 to 182 °C | FC(F)(F)c1cc(-c2c[nH]c([C@@H](NC3CCCCC3)C3CCCCC3)n2)cc(C(F)(F)F)c1 [Example 284, N-[(S)-{4-[3,5-bis(trifluoromethyl)phenyl]-1H-imidazol-2-yl}(cyclohexyl)methyl]cyclohexanamine]
19 | 149 to 150 °C | O=C(NCCc1nc(-c2ccc(F)cc2)c[nH]1)OCC1CCC1 [Example 286, cyclobutylmethyl 2-[4-(4-fluorophenyl)-1H-imidazol-2-yl]ethylcarbamate]
20 | 182.3 °C | Fc1ccc(-c2c[nH]c([C@@H](NC3CCCCC3)C3CCCCC3)n2)cc1F [Example 287, N-{(S)-cyclohexyl[4-(3,4-difluorophenyl)-1H-imidazol-2-yl]methyl}cyclohexanamine]
21 | 134.3 °C | Brc1cccc(-c2c[nH]c([C@@H](NCC3CCCCC3)C3CCCCC3)n2)c1 [Example 289, (S)-1-[4-(3-bromophenyl)-1H-imidazol-2-yl]-1-cyclohexyl-N-(cyclohexylmethyl)methanamine]
22 | 184.8 °C | Fc1ccc(-c2c[nH]c([C@@H](NCC3CCCCC3)C3CCCCC3)n2)cc1 [Example 293, (S)-1-cyclohexyl-N-(cyclohexylmethyl)-1-[4-(4-fluorophenyl)-1H-imidazol-2-yl]methanamine]
23 | 140 to 142 °C | Fc1ccc(-c2c[nH]c([C@@H](NC3CCCCCC3)C3CCCCC3)n2)cc1 [Example 301, N-{(S)-cyclohexyl[4-(4-fluorophenyl)-1H-imidazol-2-yl]methyl}cycloheptanamine]
24 | 104 to 106 °C | CC(C)(C)c1ccc(-c2c[nH]c(CCNC(=O)OCC3CCCCC3)n2)cc1 [Example 302, cyclohexylmethyl 2-[4-(4-tert-butylphenyl)-1H-imidazol-2-yl]ethylcarbamate]
25 | 186 to 188 °C | FC(F)(F)c1cccc(-c2c[nH]c([C@@H](NC3CCCCC3)C3CCCCC3)n2)c1 [Example 304, N-((S)-cyclohexyl{4-[3-(trifluoromethyl)phenyl]-1H-imidazol-2-yl}methyl)cyclohexanamine]
26 | 143.9 °C | FC(F)(F)c1cccc(-c2c[nH]c([C@@H](NCC3CCCCC3)C3CCCCC3)n2)c1 [Example 305, (S)-1-cyclohexyl-N-(cyclohexylmethyl)-1-{4-[3-(trifluoromethyl)-phenyl]-1H-imidazol-2-yl}methanamine]
27 | 217 to 218 °C | Fc1ccc(-c2c[nH]c([C@@H](CC3CCCCC3)NC3CCCCC3)n2)cc1 [Example 309, N-{(1R)-2-cyclohexyl-1-[4-(4-fluorophenyl)-1H-imidazol-2-yl]ethyl}cyclohexanamine]
28 | 128.5 °C | O=C(NCCc1nc(-c2ccc(N3CCCC3)cc2)c[nH]1)OCC1CCCCC1 [Example 326, cyclohexylmethyl 2-[4-(4-pyrrolidin-1-ylphenyl)-1H-imidazol-2-yl]ethylcarbamate]
29 | 127 to 130 °C | CC(C)(C)c1ccc(-c2c[nH]c(CCNC(=O)OC3CCCCC3)n2)cc1 [Example 342, cyclohexyl 2-[4-(4-tert-butylphenyl)-1H-imidazol-2-yl]ethylcarbamate]
